Target: T1, AR protein (Homo sapiens, UniProt P10275)
T1 construct: endogenous in cells; host or cells: VCaP
T1 sequence (P10275 1-920): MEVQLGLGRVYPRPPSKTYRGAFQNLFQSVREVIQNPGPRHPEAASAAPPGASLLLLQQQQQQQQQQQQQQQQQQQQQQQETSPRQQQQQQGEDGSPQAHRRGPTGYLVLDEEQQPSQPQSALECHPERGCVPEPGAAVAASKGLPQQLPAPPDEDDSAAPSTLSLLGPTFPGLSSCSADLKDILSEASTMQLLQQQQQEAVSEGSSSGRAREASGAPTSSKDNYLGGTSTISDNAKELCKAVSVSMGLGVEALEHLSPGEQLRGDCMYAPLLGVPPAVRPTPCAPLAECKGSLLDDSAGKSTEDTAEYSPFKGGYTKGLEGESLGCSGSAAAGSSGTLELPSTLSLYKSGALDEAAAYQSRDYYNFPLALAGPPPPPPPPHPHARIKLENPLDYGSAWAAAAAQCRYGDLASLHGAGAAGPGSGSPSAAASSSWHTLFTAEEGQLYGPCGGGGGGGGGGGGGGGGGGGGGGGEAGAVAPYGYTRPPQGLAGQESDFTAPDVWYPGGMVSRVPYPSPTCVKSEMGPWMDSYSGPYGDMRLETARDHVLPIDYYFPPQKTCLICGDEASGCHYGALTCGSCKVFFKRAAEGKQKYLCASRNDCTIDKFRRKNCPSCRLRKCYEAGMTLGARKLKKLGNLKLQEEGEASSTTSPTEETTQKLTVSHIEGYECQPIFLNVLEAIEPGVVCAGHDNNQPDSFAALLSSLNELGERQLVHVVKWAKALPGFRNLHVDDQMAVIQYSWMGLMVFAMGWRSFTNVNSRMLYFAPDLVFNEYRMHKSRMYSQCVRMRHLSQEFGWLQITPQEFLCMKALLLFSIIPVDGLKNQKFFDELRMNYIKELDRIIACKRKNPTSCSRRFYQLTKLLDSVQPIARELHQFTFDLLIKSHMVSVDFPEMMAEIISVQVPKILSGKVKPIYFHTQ
Test: Western blotting of AR protein degradation in VCaP cells
Format: cell-based
Settings: for AR protein degradation VCap 10 nM / AR protein degradation VCap 100 nM: 24 hr treatment
Description: The treated cells were lysed with RIPA buffer. […] GAPDH was used as a loading control.
Bands were quantified with ImageJ software. The relative numbers of each band obtained from normalization with its corresponding GAPDH level were compared with Prism 8 software. The DC50 values were produced from Prism 8, and the DC90 values were calculated with an equation=Bottom+(Top−Bottom)/(1+10^((Log EC50−X)*HillSlope) based on DC50 and Hillslope values.

SMILES	% AR protein degradation in VCaP Cells (0.001 μM) [%]	% AR protein degradation in VCaP Cells (0.01 μM) [%]	% AR protein degradation in VCaP Cells (0.1 μM) [%]	% AR protein degradation in VCaP Cells (1 μM) [%]	AR protein degradation VCap 10 nM	AR protein degradation VCap 100 nM
N#Cc1ccc(O[C@H]2CC[C@H](Nc3ccc(C(=O)N4CCN(C5CN(c6ccc7c(c6)C(=O)N(C6CCC(=O)NC6=O)C7=O)C5)CC4)cc3)CC2)cc1Cl (stereo partly drawn) [Cpd. No. 17, 2-chloro-4-(((1r,4r)-4-((4-(4-(1-(2-(2,6-dioxopiperidin-3-yl)-1,3-dioxoisoindolin-5-yl)azetidin-3-yl)piperazinecarbonyl)phenyl)amino)cyclohexyl)oxy)benzonitrile]	–	–	–	–	B (>50% degradation but <90% (24 hr treatment))	B (>50% degradation but <90% (24 hr treatment))
CC1(C)C(=O)N(c2ccc(C#N)c(C(F)(F)F)c2)C(=S)N1c1ccc(C(=O)N2CCN(C3CCN(c4ccc5c(c4)C(=O)N(C4CCC(=O)NC4=O)C5=O)CC3)CC2)c(F)c1 (stereo not drawn) [compound 242, 4-(3-(4-(4-(1-(2-(2,6-dioxopiperidin-3-yl)-1,3-dioxoisoindolin-5-yl)piperidin-4-yl)piperazine-1-carbonyl)-3-fluorophenyl)-4,4-dimethyl-5-oxo-2-thioxoimidazolidin-1-yl)-2-(trifluoromethyl)benzonitrile]	14	6	18	31	–	–
N#Cc1ccc(O[C@H]2CC[C@H](NC(=O)c3ccc4c(c3)CCN(CC3CCN(c5ccc6c(c5)C(=O)N(C5CCC(=O)NC5=O)C6=O)CC3)C4)CC2)cc1Cl (stereo partly drawn) [compound 9]	–	–	–	–	–	B (>50% degradation but <90% (24 hr treatment))
N#Cc1ccc(O[C@H]2CC[C@H](Nc3ccc(C(=O)N4CCN(C5CCN(c6ccc7c(c6)C(=O)N(C6CCC(=O)NC6=O)C7=O)CC5)CC4)cc3)CC2)cc1Cl (stereo partly drawn) [Cpd. No. 12]	–	–	–	–	C (>10% degradation but <50% (24 hr treatment))	A (>90% degradation (24 hr treatment))
CN(c1ccc(C#N)c(Cl)c1)[C@H]1CC[C@H](NC(=O)c2ccc(N3CCN(C4CCN(c5ccc6c(c5)C(=O)N(C5CCC(=O)NC5=O)C6=O)CC4)CC3)cc2)CC1 (stereo partly drawn) [compound 30]	–	–	–	–	A (>90% degradation (24 hr treatment))	A (>90% degradation (24 hr treatment))
CN(c1ccc(C#N)c(Cl)c1)[C@H]1CC[C@H](NC(=O)c2ccc(N3CCN(CC4CCN(c5ccc6c(c5)C(=O)N(C5CCC(=O)NC5=O)C6=O)CC4)CC3)cc2)CC1 (stereo partly drawn) [compound 29]	–	–	–	–	A (>90% degradation (24 hr treatment))	A (>90% degradation (24 hr treatment))
N#Cc1ccc(O[C@H]2CC[C@H](Nc3ccc(C(=O)N4CCN(CC5CCN(c6ccc7c(c6)C(=O)N(C6CCC(=O)NC6=O)C7=O)CC5)CC4)cc3)CC2)cc1Cl (stereo partly drawn) [compound 13]	–	–	–	–	C (>10% degradation but <50% (24 hr treatment))	B (>50% degradation but <90% (24 hr treatment))
N#Cc1ccc(O[C@H]2CC[C@H](NC(=O)c3ccc(N4CCC5(CC4)CCN(C4CCN(c6ccc7c(c6)C(=O)N(C6CCC(=O)NC6=O)C7=O)CC4)CC5)cc3)CC2)cc1Cl (stereo partly drawn) [compound 7]	–	–	–	–	B (>50% degradation but <90% (24 hr treatment))	C (>10% degradation but <50% (24 hr treatment))
N#Cc1ccc(O[C@H]2CC[C@H](NC(=O)c3ccc(NCCCCNc4ccc5c(c4)C(=O)N(C4CCC(=O)NC4=O)C5=O)cc3)CC2)cc1Cl (stereo partly drawn) [compound 210, N-((1r,4r)-4-(3-chloro-4-cyanophenoxy)cyclohexyl)-4-((4-((2-(2,6-dioxopiperidin-3-yl)-1,3-dioxoisoindolin-5-yl)amino)butyl)amino)benzamide]	43	70	55	38	–	–

Further lines, with some results ahead:

% AR protein degradation in VCaP Cells (0.001 μM) [%]	% AR protein degradation in VCaP Cells (0.01 μM) [%]	% AR protein degradation in VCaP Cells (0.1 μM) [%]	% AR protein degradation in VCaP Cells (1 μM) [%]	SMILES	AR protein degradation VCap 10 nM	AR protein degradation VCap 100 nM
27	43	65	46	N#Cc1ccc(O[C@H]2CC[C@H](NC(=O)c3ccc(NCCCCCCCCNc4ccc5c(c4)C(=O)N(C4CCC(=O)NC4=O)C5=O)cc3)CC2)cc1Cl (stereo partly drawn) [compound 214, N-((1r,4r)-4-(3-chloro-4-cyanophenoxy)cyclohexyl)-4-((8-((2-(2,6-dioxopiperidin-3-yl)-1,3-dioxoisoindolin-5-yl)amino)octyl)amino)benzamide]	–	–
6	32	39	21	N#Cc1ccc(O[C@H]2CC[C@H](NC(=O)c3ccc(N4CCN(CCNc5ccc6c(c5)C(=O)N(C5CCC(=O)NC5=O)C6=O)CC4)cc3)CC2)cc1Cl (stereo partly drawn) [compound 218, N-((1r,4r)-4-(3-chloro-4-cyanophenoxy)cyclohexyl)-4-(4-(2-((2-(2,6-dioxopiperidin-3-yl)-1,3-dioxoisoindolin-5-yl)amino)ethyl)piperazin-1-yl)benzamide]	–	–
22	36	34	43	N#Cc1ccc(O[C@@H]2CCC[C@@H](NC(=O)c3ccc(N4CCC(N5CCN(c6ccc7c(c6)C(=O)N(C6CCC(=O)NC6=O)C7=O)CC5)CC4)cc3)CC2)cc1Cl (stereo partly drawn) [compound 227, N-((1R,4R)-4-(3-chloro-4-cyanophenoxy)cycloheptyl)-4-(4-(4-(2-(2,6-dioxopiperidin-3-yl)-1,3-dioxoisoindolin-5-yl)piperazin-1-yl)piperidin-1-yl)benzamide]	–	–
7	17	39	35	N#Cc1ccc(O[C@H]2CC[C@H](NC(=O)c3ccc(NCCCCCCCCCCCNc4ccc5c(c4)C(=O)N(C4CCC(=O)NC4=O)C5=O)cc3)CC2)cc1Cl (stereo partly drawn) [compound 217, N-((1r,4r)-4-(3-chloro-4-cyanophenoxy)cyclohexyl)-4-((11-((2-(2,6-dioxopiperidin-3-yl)-1,3-dioxoisoindolin-5-yl)amino)undecyl)amino)benzamide]	–	–
2	3	23	18	N#Cc1ccc(O[C@H]2CC[C@H](NC(=O)c3ccc(N4CCC(N5CCN(c6ccc7c(c6)C(=O)N(C6CCC(=O)NC6=O)C7=O)CC5)CC4)cc3)C2)cc1Cl (stereo partly drawn) [compound 226, N-((1S,3S)-3-(3-chloro-4-cyanophenoxy)cyclopentyl)-4-(4-(4-(2-(2,6-dioxopiperidin-3-yl)-1,3-dioxoisoindolin-5-yl)piperazin-1-yl)piperidin-1-yl)benzamide]	–	–
25	70	86	82	N#Cc1ccc(O[C@H]2CC[C@H](NC(=O)c3ccc(NCCCCCCNc4ccc5c(c4)C(=O)N(C4CCC(=O)NC4=O)C5=O)cc3)CC2)cc1Cl (stereo partly drawn) [compound 212, N-((1r,4r)-4-(3-chloro-4-cyanophenoxy)cyclohexyl)-4-((6-((2-(2,6-dioxopiperidin-3-yl)-1,3-dioxoisoindolin-5-yl)amino)hexyl)amino)benzamide]	–	–
